Experimental data from patent publication US7932289B2, “Remedy for diabetes” (Takeda Pharmaceutical Company Limited, priority 2004, dated 2011).

System: type 2 diabetic rats with sulfonylurea secondary failure (N-STZ-1.5 rat)
Details: for Increment of plasma insulin level: 0 to 10 minutes after oral glucose loading (1 g/kg); for Increment of plasma insulin level / Increment of plasma glucose level: drug 10 mg/kg orally 30 min before glucose, male N-STZ-1.5 rats made glibenclamide-refractory, mean, n=6; for Increment of plasma glucose level: 0 to 60 minutes after oral glucose loading (1 g/kg); for plasma glucose level lowering effect / plasma insulin level increasing effect: in words, type 2 diabetic rats with sulfonylurea secondary failure, 10 mg/kg orally; for plasma glucose level lowering effect: summary of Table 1; for plasma insulin level increasing effect: summary of Table 2
Procedure: Streptozocin (STZ) (120 mg/kg body weight) was administered to a 1.5-day-old male WKY rat to prepare a type 2 diabetes model N-STZ-1.5 rat.
Glibenclamide (10 mg/kg body weight/day) was orally administered to the N-STZ-1.5 rats (male, 18 rats) every day for 4 consecutive weeks.
At 30 min after the administration, 1 g/kg body weight of a glucose solution was orally administered to each rat, and blood samples were collected from the rat tail vein before administration of the glucose solution and at 10, 30, 60 and 120 minutes after administration of the glucose solution, and the plasma glucose level and plasma insulin level were measured.
The plasma glucose level was measured using an L type Wako Glu2 (trade name, Wako Pure Chemical Industries, Ltd.) according to an enzyme method, and the plasma insulin level was measured using a SHIONORIA insulin kit (trade name, Shionogi & Co., Ltd.) by a radioimmunoassay.
In the Tables, the values show mean values (n=6).

Row | Structure (SMILES) | Increment of plasma insulin level [μU/ml] | Increment of plasma glucose level [mg/dL] | plasma glucose level lowering effect | plasma insulin level increasing effect
1 | Cc1cccc(C)c1-c1cccc(COc2ccc(CCC(=O)O)cc2)c1 [Compound A, 4-([2′,6′-dimethyl-1,1′-biphenyl]-3-ylmethoxy)benzenepropanoic acid] | 42.76 | 107.12 | superior plasma glucose level lowering effect | superior plasma insulin level increasing effect
2 | COc1ccc(Cl)cc1C(=O)NCCc1ccc(S(=O)(=O)NC(=O)NC2CCCCC2)cc1 [glibenclamide] | 29.37 | 178.40 | failed to show a plasma glucose level lowering effect | hardly showed a plasma insulin level increasing effect
